Reference: patent US20170050957A1, “4-AMINO-6-(HETEROCYCLIC)PICOLINATES AND 6-AMINO-2-(HETEROCYCLIC)PYRIMIDINE-4-CARBOXYLATES AND THEIR USE AS HERBICIDES” (Dow AgroSciences LLC, priority 2013, published 2017)
Like-named read-outs stand apart in the source and are kept apart here.

Legend:
[1] = test system: Key Broadleaf Weed and Crop Species; test: Post-emergent Test II herbicidal activity (Table 15); format: in vivo; conditions: post-emergence, 336 h, 14 d; for pest or weed control at 35 g/ha: 35 g ai/ha; for pest or weed control at 70 g/ha: 70 g ai/ha; for pest or weed control at 140 g/ha: 140 g ai/ha
Method in brief: (§1)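 Plants grown in greenhouse (~15 h photoperiod, 23-29 °C day, 22-28 °C night) to first or second true leaf stage, then sprayed post-emergence at 187 L/ha with a high rate and 1/2×, 1/4×, 1/8× and 1/16× dilutions. Injury scored visually after 14 d, 0-100% versus untreated plants.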

[2] = test system: Key Grass and Sedge Weeds as well as Grass Crops; test: Post-emergent Test II herbicidal activity (Table 16); format: in vivo; conditions: post-emergence, 336 h; for pest or weed control at 35 g/ha: 35 g ai/ha; for pest or weed control at 70 g/ha: 70 g ai/ha; for pest or weed control at 140 g/ha: 140 g ai/ha
Method in brief: as §1

[3] = Abutilon theophrasti, velvetleaf (Abutilon theophrasti), read-out: Visual Growth Reduction (%) 14 Days After Application, ABUTH
[4] = Amaranthus retroflexus, redroot pigweed (Amaranthus retroflexus), read-out: Visual Growth Reduction (%) 14 Days After Application, AMARE
[5] = Brassica napus, oilseed rape, canola (Brassica napus), read-out: Visual Growth Reduction (%) 14 Days After Application, BRSNN
[6] = Chenopodium album, lambsquarters (Chenopodium album), read-out: Visual Growth Reduction (%) 14 Days After Application, CHEAL
[7] = Euphorbia heterophylla, wild poinsettia (Euphorbia heterophylla), read-out: Visual Growth Reduction (%) 14 Days After Application, EPHHL
[8] = Helianthus annuus, sunflower (Helianthus annuus), read-out: Visual Growth Reduction (%) 14 Days After Application, HELAN
[9] = Cyperus esculentus, yellow nutsedge (Cyperus esculentus), 14 d, read-out: Visual Growth Reduction (%) 14 Days After Application, CYPES
[10] = Echinochloa crus-galli, barnyardgrass (Echinochloa crus-galli), 14 d, read-out: Visual Growth Reduction (%) 14 Days After Application, ECHCG
[11] = Oryza sativa, rice (Oryza sativa), 14 d, read-out: Visual Growth Reduction (%) 14 Days After Application, ORYSA
[12] = Setaria faberi, giant foxtail (Setaria faberi), 14 d, read-out: Visual Growth Reduction (%) 14 Days After Application, SETFA
[13] = Triticum aestivum, wheat, spring (Triticum aestivum), 14 d, read-out: Visual Growth Reduction (%) 14 Days After Application, TRZAS
[14] = Zea mays, maize, corn (Zea mays), 14 d, read-out: Visual Growth Reduction (%) 14 Days After Application, ZEAMX
[15] = Cyperus esculentus, yellow nutsedge (Cyperus esculentus), 14 days after application, read-out: Visual Growth Reduction (%) 14 Days After Application CYPES
[16] = Echinochloa crus-galli, barnyardgrass (Echinochloa crus-galli), 14 days after application, read-out: Visual Growth Reduction (%) 14 Days After Application ECHCG
[17] = Oryza sativa, rice (Oryza sativa), 14 days after application, read-out: Visual Growth Reduction (%) 14 Days After Application ORYSA
[18] = Setaria faberi, giant foxtail (Setaria faberi), 14 days after application, read-out: Visual Growth Reduction (%) 14 Days After Application SETFA
[19] = Triticum aestivum, wheat, spring (Triticum aestivum), 14 days after application, read-out: Visual Growth Reduction (%) 14 Days After Application TRZAS
[20] = Zea mays, maize, corn (Zea mays), 14 days after application, read-out: Visual Growth Reduction (%) 14 Days After Application ZEAMX

melting point [°C] | SMILES | pest or weed control at 35 g/ha [1, 3] [%] | pest or weed control at 70 g/ha [1, 3] [%] | pest or weed control at 140 g/ha [1, 3] [%] | pest or weed control at 35 g/ha [1, 4] [%] | pest or weed control at 70 g/ha [1, 4] [%] | pest or weed control at 140 g/ha [1, 4] [%] | pest or weed control at 35 g/ha [1, 5] [%] | pest or weed control at 70 g/ha [1, 5] [%] | pest or weed control at 140 g/ha [1, 5] [%] | pest or weed control at 35 g/ha [1, 6] [%] | pest or weed control at 70 g/ha [1, 6] [%] | pest or weed control at 140 g/ha [1, 6] [%] | pest or weed control at 35 g/ha [1, 7] [%] | pest or weed control at 70 g/ha [1, 7] [%] | pest or weed control at 140 g/ha [1, 7] [%] | pest or weed control at 35 g/ha [1, 8] [%] | pest or weed control at 70 g/ha [1, 8] [%] | pest or weed control at 140 g/ha [1, 8] [%] | other results
167 | COC(=O)c1nc(-c2ccc(Cl)c3ccoc23)c(F)c(N)c1Cl [Compound 2.24] | 75 to 84 | 75 to 84 | 95 to 100 | 95 to 100 | 95 to 100 | 95 to 100 | 60 to 74 | 75 to 84 | 75 to 84 | 95 to 100 | 95 to 100 | 95 to 100 | 60 to 74 | 75 to 84 | 75 to 84 | 75 to 84 | 75 to 84 | 85 to 94 | pest or weed control at 35 g/ha [2, 9]: 60 to 74%; pest or weed control at 70 g/ha [2, 9]: 75 to 84%; pest or weed control at 140 g/ha [2, 9]: 85 to 94%; pest or weed control at 35 g/ha [2, 10]: 0 to 29%; pest or weed control at 70 g/ha [2, 10]: 0 to 29%; pest or weed control at 140 g/ha [2, 10]: 0 to 29%; pest or weed control at 35 g/ha [2, 11]: 0 to 29%; pest or weed control at 70 g/ha [2, 11]: 0 to 29%; pest or weed control at 140 g/ha [2, 11]: 0 to 29%; pest or weed control at 35 g/ha [2, 12]: 0 to 29%; pest or weed control at 70 g/ha [2, 12]: 0 to 29%; pest or weed control at 140 g/ha [2, 12]: 0 to 29%; pest or weed control at 35 g/ha [2, 13]: 0 to 29%; pest or weed control at 70 g/ha [2, 13]: 0 to 29%; pest or weed control at 140 g/ha [2, 13]: 0 to 29%; pest or weed control at 35 g/ha [2, 14]: 0 to 29%; pest or weed control at 70 g/ha [2, 14]: 30 to 44%; pest or weed control at 140 g/ha [2, 14]: 60 to 74%
170 to 175 | COC(=O)c1nc(-c2cccc3c2cnn3C)c(F)c(N)c1Cl [Compound 4.10] | 0 to 29 | 0 to 29 | 0 to 29 | 0 to 29 | 95 to 100 | 95 to 100 | 0 to 29 | 0 to 29 | 0 to 29 | 0 to 29 | 0 to 29 | 0 to 29 | 0 to 29 | 0 to 29 | 0 to 29 | 0 to 29 | 0 to 29 | 45 to 59 | pest or weed control at 35 g/ha [2, 15]: 0 to 29%; pest or weed control at 70 g/ha [2, 15]: 0 to 29%; pest or weed control at 140 g/ha [2, 15]: 0 to 29%; pest or weed control at 35 g/ha [2, 16]: 0 to 29%; pest or weed control at 70 g/ha [2, 16]: 0 to 29%; pest or weed control at 140 g/ha [2, 16]: 0 to 29%; pest or weed control at 35 g/ha [2, 17]: 0 to 29%; pest or weed control at 70 g/ha [2, 17]: 0 to 29%; pest or weed control at 140 g/ha [2, 17]: 0 to 29%; pest or weed control at 35 g/ha [2, 18]: 0 to 29%; pest or weed control at 70 g/ha [2, 18]: 0 to 29%; pest or weed control at 140 g/ha [2, 18]: 0 to 29%; pest or weed control at 35 g/ha [2, 19]: 0 to 29%; pest or weed control at 70 g/ha [2, 19]: 0 to 29%; pest or weed control at 140 g/ha [2, 19]: 0 to 29%; pest or weed control at 35 g/ha [2, 20]: 0 to 29%; pest or weed control at 70 g/ha [2, 20]: 0 to 29%; pest or weed control at 140 g/ha [2, 20]: 0 to 29%
